According to ChEMBL document CHEMBL6071147, “A novel 7-phenoxy-benzimidazole derivative as a potent and orally available BRD4 inhibitor for the treatment of melanoma” (Bioorg Med Chem, 2024):

Target: Bromodomain testis-specific protein (Homo sapiens, UniProt Q58F21)
Test: Displacement of [Lys(5,8,12,16)Ac]H4(1 to 21)-biotin from BRDT-BD1 (unknown origin) by TR-FRET assay

IC50: 22 nM
Structure (SMILES): Cn1cc(-c2ccc3nc(C4CCOCC4)[nH]c3c2Oc2ccccc2)ccc1=O
